Structures can show the parent of a compound that is named as a salt.
biological target: human D3 receptor (Homo sapiens, UniProt P35462); test: Cytosensor Microphysiometer functional activity, antagonist mode against quinpirole (hD3-CHO cells); format: cell-based; conditions: against 30 nM quinpirole, acidification rate, read-out: pKb values at the human D3 receptor (tested as antagonists) (converted)
Sequence (P35462 whole entry): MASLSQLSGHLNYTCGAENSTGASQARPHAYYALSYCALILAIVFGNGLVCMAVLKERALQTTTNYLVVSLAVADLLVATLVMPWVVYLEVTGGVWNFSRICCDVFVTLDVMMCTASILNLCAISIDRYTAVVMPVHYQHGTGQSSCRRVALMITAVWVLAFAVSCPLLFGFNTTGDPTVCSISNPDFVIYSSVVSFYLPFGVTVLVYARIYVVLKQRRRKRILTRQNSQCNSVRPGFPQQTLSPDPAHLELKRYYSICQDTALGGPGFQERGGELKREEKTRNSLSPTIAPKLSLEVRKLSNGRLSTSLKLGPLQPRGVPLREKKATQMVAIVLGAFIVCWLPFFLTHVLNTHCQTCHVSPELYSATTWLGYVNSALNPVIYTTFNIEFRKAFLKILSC

Kb, 0.0316 to 10 nM:
CCCN(CCCCNC(=O)c1ccc(-c2ccccc2)cc1)C1CCc2c(Cl)cccc2C1 (racemic) [Example 2k, 5-Chloro-N-(4-(4-phenylbenzoylamino)butyl)-2-(R,S)-propylamino-1,2,3,4-tetrahydronaphthalene, hydrochloride]
CCCN(CCCCNC(=O)c1ccc(-c2ccccc2)cc1)C1CCc2ccc(Cl)cc2C1 (racemic) [Example 2m, 7-Chloro-N-(4-(4-phenylbenzoylamino)butyl)-2-(R,S)-propylamino-1,2,3,4-tetrahydronaphthalene, hydrochloride]
CCCN(CCCCNC(=O)c1ccc(-c2ccccc2)cc1)C1CCc2cc(OC(F)(F)F)ccc2C1 (racemic) [Example 2x, N-(4-(4-Phenylbenzoylamino)butyl)-2-(R,S)-propylamino-6-trifluoromethoxy-1,2,3,4-tetrahydronaphthalene, hydrochloride]
CCCN(CCCCNC(=O)c1ccc(-c2ccccc2)cc1)C1CCc2c(CC(=O)OCC)cccc2C1 (racemic) [Example 3bb, N-(4-(4-Phenylbenzoylamino)butyl)-6-(R,S)-propylamino-5,6,7,8-tetrahydronaphthalene-1-acetic acid, ethyl ester, hydrochloride]
CCCN(CCCCNC(=O)c1ccc(-c2ccccc2)cc1)C1CCc2cc(CC(=O)OCC)ccc2C1 (racemic) [Example 3cc, N-(4-(4-Phenylbenzoylamino)butyl)-6-(R,S)-propylamino-5,6,7,8-tetrahydronaphthalene-2-acetic acid, ethyl ester, hydrochloride]
CCCN(CCCCNC(=O)c1ccc(-c2ccccc2)cc1)C1CCc2ccc(CC(=O)OCC)cc2C1 (racemic) [Example 3dd, N-(4-(4-Phenylbenzoylamino)butyl)-7-(R,S)-propylamino-5,6,7,8-tetrahydronaphthalene-2-acetic acid, ethyl ester, hydrochloride]
CCCN(CCCCNC(=O)c1ccc(-c2ccccc2)cc1)C1CCc2ccccc2C1 (racemic) [Example 10f, N-(4-(4-phenylbenzoylamino)butyl)-2-(R,S)-propylamino-1,2,3,4-tetrahydronaphthalene, hydrochloride]
CCCN(CCCCNC(=O)c1ccc(-c2ccccc2)cc1)C1CCc2c(cccc2OS(=O)(=O)C(F)(F)F)C1 (racemic) [Example 15, N-(4-(4-Phenylbenzoylamino)butyl)-2-(R,S)-propylamino-5-trifluoromethanesulfonyloxy-1,2,3,4-tetrahydronaphthalene, hydrochloride]
CCCN(CCCCNC(=O)c1ccc(-c2ccccc2)cc1)C1CCc2c(cccc2OS(C)(=O)=O)C1 (racemic) [Example 17, 5-Methanesulfonyloxy-N-(4-(4-phenylbenzoylamino)butyl)-2-(R,S)-propylamino-1,2,3,4-tetrahydronaphthalene, hydrochloride]
CCCN(CCCCNC(=O)c1ccc(-c2ccccc2)cc1)C1Cc2ccccc2C1 [Example 2p, N-(4-(4-Phenylbenzoylamino)butyl)-2-propylaminoindane, hydrochloride]

From patent publication US6008219A, “Bicyclic amine derivatives and their use as anti-psychotic agents” (SmithKline Beech p.l.c., priority 1995, dated 1999)
